Measurements: publication PMC4018172 (Analytical Chemistry, 2014)

System: phosphorylated PKB (Ser473)
Assay: Western blot of active
Assay type: cell-based, human
Conditions: PANC-1, CFPAC-1 and HPAF-II cell lysates (all three cell lines); 1 μM wortmannin for 10 min prior to lysis

SMILES: COC[C@H]1OC(=O)c2coc3c2[C@@]1(C)C1=C(C3=O)[C@@H]2CCC(=O)[C@@]2(C)C[C@H]1OC(C)=O [wortmannin]
- amount of phosphorylated Ser473 (pSer473) of PKB by Western blot: decreased
